From patent publication US8852629B2, “Drug delivery system for hydrophobic drugs” (Valeant Pharmaceuticals International, Inc., priority 2001, dated 2014)

Key:
[1] = storage stability (potency) of cryodesiccated MA composition; format: physicochemical; conditions: room temperature
Excerpt: Once formulated, the MA of the invention may be freeze-dried for long-term storage if desired. […] If the composition is freeze-dried, it may be packed in vials for subsequent reconstitution with a suitable aqueous solution, such as sterile water or sterile water containing a saccharide and/or other suitable excipients, just prior to use. For example, reconstitution may be by simply adding water for injection just prior to administration.

[2] = lability in an aqueous environment; format: physicochemical; conditions: must be lyophilized for storage
Excerpt: It has been a challenge to find suitable pharmaceutical formulations for hydrophobic polypyrrolic macrocyle based photosensitizers that can be filter sterilized and freeze dried, and can also be rapidly reconstituted in an aqueous medium prior to administration, while retaining a small particle size after rehydration. Photosensitive compounds such as verteporfin (BPD-MA) and QLT 0074 (EA6) must be lyophilized for storage, because they are labile in an aqueous environment.

benzoporphyrin derivative monoacid ring A [BPD-MA]
period over which potency was maintained [1]: at least nine
stability in an aqueous environment [2]: labile
